We go through 14 compounds from patent US20240368203A1, “DEGRADATION OF (EGFR) BY CONJUGATION OF EGFR INHIBITORS WITH E3 LIGASE LIGAND AND METHODS OF USE” (BeiGene, Ltd., priority 2022, published 2024).

The test system of one experiment is EGFR-Del19/T790M/C797S. As to the kind of experiment: EGFR degradation HTRF assay in H1975-clone #28 cells. To be noted: H1975-clone #28 (Del19/T790M/C797S) cells, 16 h treatment; for DC50: IC50 (DC50), read-out: DC50(nM) H1975 # 28 DTC; for Dmax (%) H1975 # 28 DTC: maximum percentage of inhibition (degradation). It counts as cell-based. In short, it runs like this: (§1)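 H1975 clones with endogenous EGFR knocked out, homozygously expressing lentiviral L858R/T790M/C797S (#25) or Del19/T790M/C797S (#28), treated 16 h at 37° C with 8 doses from 10 uM, 5-fold, in 0.2% DMSO. EGFR in lysates measured by HTRF overnight; DC50 from four-parameter fit of % degradation.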
(In general: Time-resolved FRET reads energy transfer from a long-lived donor to a nearby acceptor.)

Another experiment has as its target T1, EGFR-L858R/T790M/C797S (Homo sapiens, UniProt P00533, C797S/L858R/T790M).
T1 construct: expressed in transfected cells; host or cells: H1975-clone #25 (lentiviral over-expression, endogenous EGFR knocked out)
The experiment can be described thus: EGFR degradation HTRF assay in H1975-clone #25 cells. As to conditions: 16 h treatment; for DC50: H1975-clone #25 (L858R/T790M/C797S) cells, IC50 (DC50), read-out: DC50(nM) H1975 # 25-LTC; for Dmax: NCI-H1975, H1975-clone #25 (L858R/T790M/C797S) cells, maximum percentage of inhibition (degradation), read-out: Dmax (%) H1975 # 25-LTC. The class given is cell-based. In short, it runs like this:
as §1

T1 sequence (P00533 25-1210 T790M/C797S/L858R): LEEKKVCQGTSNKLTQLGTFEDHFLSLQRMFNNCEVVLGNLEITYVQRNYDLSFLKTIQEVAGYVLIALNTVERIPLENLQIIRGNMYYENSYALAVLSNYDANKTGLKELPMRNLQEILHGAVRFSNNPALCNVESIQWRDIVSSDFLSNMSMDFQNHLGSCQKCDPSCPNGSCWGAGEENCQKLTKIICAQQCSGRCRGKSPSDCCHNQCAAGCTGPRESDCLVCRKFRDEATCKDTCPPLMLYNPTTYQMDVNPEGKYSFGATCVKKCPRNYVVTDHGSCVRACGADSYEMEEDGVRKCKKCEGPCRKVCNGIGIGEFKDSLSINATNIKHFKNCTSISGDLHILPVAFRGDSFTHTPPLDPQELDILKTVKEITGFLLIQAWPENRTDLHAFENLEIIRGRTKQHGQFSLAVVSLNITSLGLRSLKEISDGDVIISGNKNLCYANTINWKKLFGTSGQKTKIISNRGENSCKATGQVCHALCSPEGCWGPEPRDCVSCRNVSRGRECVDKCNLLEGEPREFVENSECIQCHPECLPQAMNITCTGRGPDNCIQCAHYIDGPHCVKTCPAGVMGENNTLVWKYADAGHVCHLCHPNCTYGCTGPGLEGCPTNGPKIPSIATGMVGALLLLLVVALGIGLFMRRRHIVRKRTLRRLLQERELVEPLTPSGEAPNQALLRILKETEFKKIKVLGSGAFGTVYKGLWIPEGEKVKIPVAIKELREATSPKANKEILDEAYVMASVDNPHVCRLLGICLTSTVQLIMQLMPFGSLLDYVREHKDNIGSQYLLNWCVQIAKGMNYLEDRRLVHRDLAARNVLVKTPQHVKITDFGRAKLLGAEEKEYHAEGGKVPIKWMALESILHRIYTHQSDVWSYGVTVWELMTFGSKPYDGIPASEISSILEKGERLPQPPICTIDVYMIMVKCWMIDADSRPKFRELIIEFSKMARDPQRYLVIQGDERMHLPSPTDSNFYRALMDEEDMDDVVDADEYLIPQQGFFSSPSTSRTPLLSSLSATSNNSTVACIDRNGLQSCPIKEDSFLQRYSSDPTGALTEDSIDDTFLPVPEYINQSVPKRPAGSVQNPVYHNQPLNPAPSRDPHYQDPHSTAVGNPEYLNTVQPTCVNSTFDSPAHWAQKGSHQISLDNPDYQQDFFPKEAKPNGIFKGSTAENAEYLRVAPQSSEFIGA

For the compound `CCc1ncc2c(P(C)(C)=O)c(Nc3nc(Nc4cc(C)c(N5CCC6(CCN(CCc7cc(F)c([C@H]8CCC(=O)NC8=O)c(F)c7)CC6)CC5)cc4OC)ncc3Cl)ccc2n1` [Example 42, (R)-3-(4-(2-(9-(4-((5-chloro-4-((5-(dimethylphosphoryl)-2-ethylquinazolin-6-yl)amino)pyrimidin-2-yl)amino)-5-methoxy-2-methylphenyl)-3,9-diazaspiro[5.5]undecan-3-yl)ethyl)-2,6-difluorophenyl)piperidine-2,6-dione], in the experiment on EGFR-Del19/T790M/C797S, the 50% degradation concentration (DC50) (as a rule, the midpoint of the concentration-degradation curve) was 1.5 nM and the “Dmax (%) H1975 # 28 DTC” value was 93%. Also, at EGFR-L858R/T790M/C797S, the half-maximal degradation concentration (DC50) was determined as 4.9 nM and the Dmax – broadly, the largest share of the target that was removed – is 85%.

Take `CCc1cc(Nc2ncc(Br)c(Nc3ccc4nc(C)c(F)cc4c3P(C)(C)=O)n2)c(OC)cc1N1CCC2(CC1)CCN(C1CN(c3cc(F)c([C@H]4CCC(=O)NC4=O)c(F)c3)C1)CC2` [Example 38, (R)-3-(4-(3-(9-(4-((5-bromo-4-((5-(dimethylphosphoryl)-3-fluoro-2-methylquinolin-6-yl)amino)pyrimidin-2-yl)amino)-2-ethyl-5-methoxyphenyl)-3,9-diazaspiro[5.5]undecan-3-yl)azetidin-1-yl)-2,6-difluorophenyl)piperidine-2,6-dione]: in the experiment with EGFR-Del19/T790M/C797S, the half-maximal degradation concentration (DC50) came to 7.4 nM and the “Dmax (%) H1975 # 28 DTC” value is on record as 85%. For the same compound, on EGFR-L858R/T790M/C797S, the DC50 was 8.6 nM and the Dmax came to 89%.

Take `CCc1cc(Nc2ncc(Br)c(Nc3ccc4nc(C)c(F)cc4c3P(C)(C)=O)n2)c(OC)cc1N1CCC2(CC1)CCN(C1CCN(c3cccc4c3C(C)(C)C(=O)N4C3CCC(=O)NC3=O)CC1)CC2` (centres unmarked) [Example 52, 3-(4-(4-(9-(4-((5-bromo-4-((5-(dimethylphosphoryl)-3-fluoro-2-methylquinolin-6-yl)amino)pyrimidin-2-yl)amino)-2-ethyl-5-methoxyphenyl)-3,9-diazaspiro[5.5]undecan-3-yl)piperidin-1-yl)-3,3-dimethyl-2-oxoindolin-1-yl)piperidine-2,6-dione]: in the experiment with EGFR-Del19/T790M/C797S, the 50% degradation concentration (DC50) worked out at 3.4 nM and the “Dmax (%) H1975 # 28 DTC” value stood at 79%. In addition, at EGFR-L858R/T790M/C797S, the 50% degradation concentration (DC50) turned out to be 3.8 nM and the maximal degradation (Dmax) was found to be 90%.

As to `CCc1ncc2c(P(C)(C)=O)c(Nc3nc(Nc4cc(CC)c(N5CCC(N6CCN(C7CN(c8cc(F)c([C@H]9CCC(=O)NC9=O)c(F)c8)C7)CC6)CC5)cc4OC)ncc3Br)ccc2n1` (single isomer, unassigned) [Example 7], in the experiment on EGFR-Del19/T790M/C797S, the 50% degradation concentration (DC50) came to 2.7 nM and the “Dmax (%) H1975 # 28 DTC” value amounted to 86%. Besides, at EGFR-L858R/T790M/C797S, the DC50 stood at 2.9 nM and the maximal degradation (Dmax) worked out at 76%.

On to `CCc1cc(Nc2ncc(Br)c(Nc3ccc4nc(C)c(F)cc4c3P(C)(C)=O)n2)c(OC)cc1N1CCC(N2CCN(C(=O)C3CN(c4ccc(F)c5c4n(C)c(=O)n5[C@H]4CCC(=O)NC4=O)C3)CC2)CC1` [Example 24, (S)-3-(4-(3-(4-(1-(4-((5-bromo-4-((5-(dimethylphosphoryl)-3-fluoro-2-methylquinolin-6-yl)amino)pyrimidin-2-yl)amino)-2-ethyl-5-methoxyphenyl)piperidin-4-yl)piperazine-1-carbonyl)azetidin-1-yl)-7-fluoro-3-methyl-2-oxo-2,3-dihydro-1H-benzo[d]imidazol-1-yl)piperidine-2,6-dione], for which, in the experiment on EGFR-Del19/T790M/C797S, the DC50 is 0.6 nM and the “Dmax (%) H1975 # 28 DTC” value is on record as 87%. Also, on EGFR-L858R/T790M/C797S, the DC50 was determined as 1.4 nM and the Dmax came out at 88%.

For `CCc1cc(Nc2ncc(Br)c(Nc3ccc4nc(C)c(F)cc4c3P(C)(C)=O)n2)c(OC)cc1N1CCC(N2CCC3(CCN(c4cc(F)c([C@H]5CCC(=O)NC5=O)c(F)c4)C3)C2)CC1` (stereo partly drawn) [Example 17, (3R)-3-(4-(7-(1-(4-((5-bromo-4-((5-(dimethylphosphoryl)-3-fluoro-2-methylquinolin-6-yl)amino)pyrimidin-2-yl)amino)-2-ethyl-5-methoxyphenyl)piperidin-4-yl)-2,7-diazaspiro[4.4]nonan-2-yl)-2,6-difluorophenyl)piperidine-2,6-dione], in the experiment on EGFR-Del19/T790M/C797S, the DC50 is 1.7 nM and the “Dmax (%) H1975 # 28 DTC” value was found to be 92%. Also, on EGFR-L858R/T790M/C797S, the DC50 was found to be 2.9 nM and the Dmax worked out at 87%.

`CCc1cc(Nc2ncc(Br)c(Nc3ccc4nc(C)c(F)cc4c3P(C)(C)=O)n2)c(OC)cc1N1CCC2(CCN(CC3CCN(c4ccc5c(c4)C(=O)N(C4CCC(=O)NC4=O)C5=O)CC3)CC2)CC1` (centres unmarked) [Example 46, 5-(4-((9-(4-((5-bromo-4-((5-(dimethylphosphoryl)-3-fluoro-2-methylquinolin-6-yl)amino)pyrimidin-2-yl)amino)-2-ethyl-5-methoxyphenyl)-3,9-diazaspiro [5.5]undecan-3-yl)methyl)piperidin-1-yl)-2-(2,6-dioxopiperidin-3-yl)isoindoline-1,3-dione]: in the experiment with EGFR-Del19/T790M/C797S, the DC50 was 3.3 nM and the “Dmax (%) H1975 # 28 DTC” value turned out to be 80%. On EGFR-L858R/T790M/C797S, the half-maximal degradation concentration (DC50) was found to be 5.4 nM and the greatest degradation seen (Dmax) came out at 89%.

`CCc1ncc2c(P(C)(C)=O)c(Nc3nc(Nc4cc(CC)c(N5CCC(N6CCN(CC7CCN(c8ccc9c(c8)CN(C8CCC(=O)NC8=O)C9=O)CC7)CC6)CC5)cc4OC)ncc3Br)ccc2n1` (centres unmarked) [Example 35, 3-(5-(4-((4-(1-(4-((5-bromo-4-((5-(dimethylphosphoryl)-2-ethylquinazolin-6-yl)amino)pyrimidin-2-yl)amino)-2-ethyl-5-methoxyphenyl)piperidin-4-yl)piperazin-1-yl)methyl)piperidin-1-yl)-1-oxoisoindolin-2-yl)piperidine-2,6-dione]: in the experiment on EGFR-Del19/T790M/C797S, the DC50 stood at 1.2 nM and the “Dmax (%) H1975 # 28 DTC” value was found to be 79%. On EGFR-L858R/T790M/C797S, the DC50 is 1.3 nM and the greatest degradation seen (Dmax) was found to be 83%.

For `CCc1cc(Nc2ncc(Br)c(Nc3ccc4nc(C)c(F)cc4c3P(C)(C)=O)n2)c(OC)cc1N1CCC2(CCN(CCNc3cc(F)c([C@H]4CCC(=O)NC4=O)c(F)c3)CC2)CC1` (single isomer, unassigned) [Example 43], in the experiment with EGFR-Del19/T790M/C797S, the DC50 was 3.7 nM and the “Dmax (%) H1975 # 28 DTC” value came to 87%. For the same compound, at EGFR-L858R/T790M/C797S, the half-maximal degradation concentration (DC50) came to 4.6 nM and the maximal degradation (Dmax) turned out to be 90%.

Take `CCc1cc(Nc2ncc(Br)c(Nc3ccc4nc(C)c(F)cc4c3P(C)(C)=O)n2)c(OC)cc1N1CCC2(CC1)CCN(C1CC(c3cc(F)c([C@H]4CCC(=O)NC4=O)c(F)c3)C1)CC2` (single isomer, unassigned) [Example 5]: in the experiment on EGFR-Del19/T790M/C797S, the DC50 was found to be 3.1 nM and the “Dmax (%) H1975 # 28 DTC” value came to 90%. For the same compound, on EGFR-L858R/T790M/C797S, the 50% degradation concentration (DC50) was 3.7 nM and the maximal degradation (Dmax) came out at 92%.

Take `CCc1cc(Nc2ncc(Cl)c(Nc3ccc4nc(C)c(F)cc4c3P(C)(C)=O)n2)c(OC)cc1N1CCC(N2CCC(N3CCN(c4cc(F)c([C@H]5CCC(=O)NC5=O)c(F)c4)CC3)CC2)CC1` [Example 12, (R)-3-(4-(4-(1′-(4-((5-chloro-4-((5-(dimethylphosphoryl)-3-fluoro-2-methylquinolin-6-yl)amino)pyrimidin-2-yl)amino)-2-ethyl-5-methoxyphenyl)-[1,4′-bipiperidin]-4-yl)piperazin-1-yl)-2,6-difluorophenyl)piperidine-2,6-dione]: in the experiment on EGFR-Del19/T790M/C797S, the DC50 is 2.9 nM and the “Dmax (%) H1975 # 28 DTC” value is reported as 91%. On EGFR-L858R/T790M/C797S, the DC50 is 2.5 nM and the Dmax is 92%.

As to `COc1cc(N2CCC3(CC2)CCN(C2CCN(c4cc(F)c([C@H]5CCC(=O)NC5=O)c(F)c4)CC2)CC3)c(C)cc1Nc1ncc(Br)c(Nc2ccc3nc(C)c(F)cc3c2P(C)(C)=O)n1` [Example 37, (R)-3-(4-(4-(9-(4-((5-bromo-4-((5-(dimethylphosphoryl)-3-fluoro-2-methylquinolin-6-yl)amino)pyrimidin-2-yl)amino)-5-methoxy-2-methylphenyl)-3,9-diazaspiro[5.5]undecan-3-yl)piperidin-1-yl)-2,6-difluorophenyl)piperidine-2,6-dione], in the experiment on EGFR-Del19/T790M/C797S, the DC50 worked out at 3.3 nM and the “Dmax (%) H1975 # 28 DTC” value turned out to be 90%. Moreover, on EGFR-L858R/T790M/C797S, the DC50 was 1.4 nM and the greatest degradation seen (Dmax) was determined as 95%.

With `CCc1ncc2c(P(C)(C)=O)c(Nc3nc(Nc4cc(CC)c(N5CCC(N6CC(N7CCC(c8cc(F)c([C@H]9CCC(=O)NC9=O)c(F)c8)CC7)C6)CC5)cc4OC)ncc3Br)ccc2n1` [Example 13, (R)-3-(4-(1-(1-(1-(4-((5-bromo-4-((5-(dimethylphosphoryl)-2-ethylquinazolin-6-yl)amino)pyrimidin-2-yl)amino)-2-ethyl-5-methoxyphenyl)piperidin-4-yl)azetidin-3-yl)piperidin-4-yl)-2,6-difluorophenyl)piperidine-2,6-dione], in the experiment on EGFR-Del19/T790M/C797S, the DC50 was 0.7 nM and the “Dmax (%) H1975 # 28 DTC” value turned out to be 92%. For the same compound, on EGFR-L858R/T790M/C797S, the DC50 is 1.8 nM and the maximal degradation (Dmax) was 94%.

Take `CCc1ncc2c(P(C)(C)=O)c(Nc3nc(Nc4cc(CC)c(N5CCC(N6CCN(C7CN(c8cccc9c8n(C)c(=O)n9C8CCC(=O)NC8=O)C7)CC6)CC5)cc4OC)ncc3Br)ccc2n1` (centres unmarked) [Example 23, 3-(4-(3-(4-(1-(4-((5-bromo-4-((5-(dimethylphosphoryl)-2-ethylquinazolin-6-yl)amino)pyrimidin-2-yl)amino)-2-ethyl-5-methoxyphenyl)piperidin-4-yl)piperazin-1-yl)azetidin-1-yl)-3-methyl-2-oxo-2,3-dihydro-1H-benzo[d]imidazol-1-yl)piperidine-2,6-dione]: in the experiment with EGFR-Del19/T790M/C797S, the DC50 is 0.6 nM and the “Dmax (%) H1975 # 28 DTC” value came out at 74%. Besides, on EGFR-L858R/T790M/C797S, the DC50 came to 0.9 nM and the Dmax came out at 80%.
